Data published in patent EP0478964A1, “Pyrazoloquinoline derivatives” (SHIONOGI SEIYAKU KABUSHIKI KAISHA, priority 1990, dated 1992).

Columns and labels:
[1] = test system: convulsion induced by pentylenetetrazol; assay: Test of potentiating convulsion induced by pentylenetetrazol (inverse agonist activity); format: in vivo, mice; details: Mus musculus, iv, read-out: ED₅₀
Experimental: (§1) Inverse agonist activity was evaluated by the following procedure. A certain amount of a test compound was administered intravenously to 8-16 male mice per group, followed by pentylenetetrazol at a subcuataneous dose of 90 mg/kg. The dose (ED₅₀) at which 50% of mice stayed alive, was calculated by the Probit method.

BDZ receptor = BDZ receptor binding assay (displacement of tritium labeled diazepam); details: cerebral cortex of Wistar rats; 2nM tritium labeled diazepam; 0 °C for 60 minutes; Ki calculated from IC50
Experimental: This test was carried out according to the modified method of Möhler & Okada, Science, 198, 849-851 (1977).
The BDZ receptor preparation was provided from the cerebral cortex of Wistar rats (male, 11 to 13 week-old). Inhibitory activities of the test compound were determined by the specific binding strengh of tritium labeled diazepam to the receptor. 2nM tritium labeled diazepam and an aqeuous solution of the test compound at 5 or 6 different concentrations were incubated at 0 °C for 60 minutes. The 50 % inhibitory concentration (IC₅₀) was measured by the concentration-response curve.
The inhibitory constant (Ki) was calculated according to the following equation, in which Kd is the dissociation constant of the tritium labeled diazepam and L is the concentration of the labeled ligand. [formula]

[2] = test system: convulsion induced by pentylenetetrazol; assay: Test of suppressing convulsion induced by pentylenetetrazol (agonist activity); format: in vivo; details: Mus musculus; male mice; test compound intravenously; pentylenetetrazol subcutaneous 125 mg/kg; dose at which 50% of mice was alive; Probit method; read-out: ED₅₀
Experimental: as §1, with “Agonist” for “Inverse agonist”, “125” for “90”, “was” for “stayed”

Row | SMILES | ED50 ([1]; male mice, test compound intravenously, pentylenetetrazol subcutaneous 90 mg/kg, dose at which 50% of mice stayed alive, Probit method) [mg/kg] | Ki (BDZ receptor) [nM] | ED50 [2] [mg/kg] | ED50 [1] [mg/kg]
1 | O=c1c2c[nH]c3ccccc3c-2nn1C1=CCCC1 [I-1, 2-(Cyclopenten-1-yl)-2,5-dihydro-3H-pyrazolo[4,3-c]quinolin-3-one] | 1.07 | 0.52 | – | –
2 | COc1ccc2[nH]cc3c(=O)n(C4=CCOC4)nc-3c2c1 [I-11, 8-Methoxy-2-(2,5-dihydrofuran-3-yl)-2,5-dihydro-3H-pyrazolo[4,3-c]quinolin-3-one] | – | 0.69 | – | –
3 | O=c1c2c[nH]c3ccccc3c-2nn1C1=CCCCC1 [I-16] | – | 1.5 | – | –
4 | CC(C)/C=C/n1nc2c3ccccc3[nH]cc-2c1=O [I-21] | – | 0.98 | 0.72 | –
5 | C/C=C/n1nc2c3ccccc3[nH]cc-2c1=O [I-24] | – | 1 | – | 0.23
6 | CC1CC=C(n2nc3c4ccccc4[nH]cc-3c2=O)CC1 (stereo not drawn) [I-25] | – | 3.1 | 0.69 | –
7 | O=c1c2c[nH]c3ccc(F)cc3c-2nn1C1=CCCC1 [I-31] | – | 0.48 | – | 0.81
8 | COc1ccc2c3nn(C4=CCCC4)c(=O)c-3c[nH]c2c1 [I-34] | – | 2.1 | – | –
9 | Cc1ccc2[nH]cc3c(=O)n(C4=CCCC4)nc-3c2c1 [I-36] | – | 0.48 | – | 0.4
10 | O=c1c2c[nH]c3ccccc3c-2nn1C1=CCOC1 [I-38] | – | 0.59 | – | –
11 | CC1(C)C=C(n2nc3c4ccccc4[nH]cc-3c2=O)CO1 [I-39] | – | 0.29 | 0.19 | –
